Measurements: a melting point compilation (Tetko et al.; mined from patent text by program, amines drawn as free bases though some values may be those of a salt)

Work on `CC(C)C1(C)N=C(c2ncc(CN(C)C)cc2C(=O)O)NC1=O` (stereo not drawn) yielded a melting point of 186 to 190 °C. Work on `O=C1c2ccccc2S(=O)(=O)N1COc1ccc([N+](=O)[O-])cc1` yielded a melting point of 162 to 164 °C. `CCC(Oc1cnc(Cl)c(Cl)c1)C(=O)O` (stereo not drawn) showed a melting point of 117 to 118 °C. For `COc1cccc(Nc2nc(NC(=O)C(C)(C)C)nc3[nH]c4ccccc4c23)c1`, the melting point was 267 °C. `CCCCCCCCc1cc2c(cc1CCCCCCCC)c1ccsc1c1sccc21` gave a melting point of 62.2 to 63.1 °C. `ClCc1nc2ccccc2c2ccnn12` showed a melting point of 135 to 136 °C. `Cc1ccccc1-c1cc(F)cc2c1NC(CN)CO2` (stereo not drawn) gave a melting point of 78 °C. `C=CCOc1ccccc1S(=O)(=O)NC(=O)Nc1nc(C)nc(OC)n1` gave a melting point of 146 to 147 °C. `CC(C)NC(=O)C(=O)c1ccc(Cl)cc1` gave a melting point of 79 °C. Compound `O=C(Nc1ccc([N+](=O)[O-])cc1)c1ccc(Nc2ccncc2)cc1` has a melting point of 298 to 302 °C. In the case of `COc1cc(C(=O)N(C(C)C)C(C)C)ccc1OCCCCCOc1ccc(C=NN)cc1`, the melting point is reported as 112 to 114 °C. `Cc1ccc2c(c1Cl)C(=O)N(C(C)(C(N)=O)C(C)C)C2=O` (stereo not drawn) gave a melting point of 215 to 218 °C. Work on `CCOC(=O)c1c2ccc(CC(=O)NOC(=O)NCCCCN)ccc-2c(C(=O)OCC)c1N` yielded a melting point of 150 °C. Work on `CC(C)c1ccc(NC(=O)c2ccc(C(=O)O)cn2)cc1C(C)C` yielded a melting point of 188 to 190 °C. Compound `O=S(=O)(Cc1nc2ccc(Cl)cc2[nH]1)c1ccccn1` has a melting point of 183 to 186 °C. Work on `CCCCCCCCNC(=O)n1cc(F)c(=O)[nH]c1=O` yielded a melting point of 98 to 100 °C. With `CC(C)(C)[C@H]1CC[C@H](CC2=C(Cl)C(=O)c3ccccc3C2=O)CC1` the melting point was 154 to 156 °C. Work on `NCCNCCN1CCC(c2cn(-c3ccc(F)cc3)c3ccc(Cl)cc23)CC1` yielded a melting point of 150 °C. `CC(C)(C)c1cc(N=Nc2cc(Cl)ccc2Cl)c(O)c(C(C)(C)C)c1` gave a melting point of 121 to 126 °C. With `CCC(=NOCC=Cc1ccc(Br)cc1)C1=C(O)CC(C2CCCSC2)CC1=O` (stereo not drawn) the melting point was 97 to 99 °C. Compound `Nc1nc(-n2cc(C(=O)O)c(=O)c3cc(F)c(NCC(O)CO)c(Cl)c32)c(F)cc1F` (stereo not drawn) has a melting point of 166 to 169 °C. `N#Cc1cnc2sc(-c3ccc(C=O)cc3)cc2c1Nc1ccc2[nH]ccc2c1` gave a melting point of over 260 °C. In the case of `CCC12CCC3C4CCC(=O)C=C4C(C)CC3C1CCC2O` (stereo not drawn), the melting point is reported as 127 to 130 °C. For `O=C(O)CCc1ccc(OCCN2CCCC2=O)cc1Oc1ncc(C(F)(F)F)cc1Cl`, the melting point was 145 to 146 °C. Compound `O=C(O)c1ccc2c(c1)S(=O)c1ccccc1CC2` (stereo not drawn) has a melting point of 261 to 265 °C. Work on `CN1C(=O)CCC1c1cncc(Br)c1` (stereo not drawn) yielded a melting point of 85 to 87 °C. In the case of `O=C1Nc2ccc3sccc3c2C1=O`, the melting point is reported as 200 to 201 °C. Compound `CC[C@@H](CN1CCCc2cc(Br)ccc21)NS(=O)(=O)c1c(C)cc(C)cc1C` has a melting point of 135 °C. Work on `COc1ccc(C(=O)CCC(=O)c2ccc(OC)c(OC)c2)cc1OC` yielded a melting point of 181 to 182 °C. In the case of `CC(C)(C)OC(=O)N1CCN(c2ccc(C#N)c(F)c2)CC1`, the melting point is reported as 130 to 131 °C. For `CCCCOC(=O)c1ccc2ccc(C)nc2c1OC(=O)C(C)(C)C`, the melting point was 52 °C. In the case of `CCCc1ncc(/C=C(\Cc2cccs2)c2nnn[nH]2)n1Cc1ccccc1Cl`, the melting point is reported as 174 to 175 °C. With `CC1CN(C(=O)NC(CS)Cc2ccccc2)CC(C)O1` (single isomer, unassigned; (+)) the melting point was 120 to 122 °C. For `CN1CCN(c2cc(Cl)cc3c2c(=O)n(-c2ccccc2)c(=O)n3Cc2ccccc2)CC1`, the melting point was 111 to 119 °C. With `O=C(CO)c1ccccc1F` the melting point was 51 to 54 °C. Compound `Cc1ccccc1-c1ccc(C(=O)N2Cc3ccc(C(=O)NC(C)c4ccccc4)n3Cc3ccccc32)cc1C` (stereo not drawn) has a melting point of 118 to 124 °C. With `O=[N+]([O-])c1cc(Cl)c(Oc2ccccc2)c(Cl)c1Oc1ccccc1` the melting point was 164 °C. For `C=C[C@H](O)[C@@H](N)CC1CCCCC1`, the melting point was 59 to 61 °C. With `OC(COc1ncnc2nc[nH]c12)CN1CCN(C(c2ccccc2)c2ccccc2)CC1` (stereo not drawn) the melting point was 115 °C. In the case of `CCOC(=O)C(C)(C)Cc1cccnc1`, the melting point is reported as 64 to 66 °C. Work on `CCOc1ccc2c(c1)n(C1CCOCC1)c(=O)n2S(=O)(=O)c1ccc(C(=O)O)cc1OC` yielded a melting point of 255 °C. Work on `Cc1c(Cc2ccc(F)c(Cl)c2)sc2c(-c3cccc(C(=O)NCCO)c3)cccc12` yielded a melting point of 146 to 147 °C. `CCCCCCCCCCCCCCCC(=O)OCCCN(C)C` gave a melting point of 49 to 50 °C. `CS(=O)(=O)c1ccc(-c2sc(-c3ccccc3Cl)nc2-c2ccc(F)cc2F)cc1` showed a melting point of 166 to 169 °C. `Cc1cc2c(cc1C)OCC(NNc1ncnc3c1ncn3C1OC(CO)C(O)C1O)C2` (stereo not drawn) gave a melting point of 170 to 172 °C. `COc1cc(C(C)=O)ccc1OCCCCCl` showed a melting point of 68.5 to 70.5 °C. `N#Cc1ccc(C=Cc2ccc(N(CCO)CCO)cc2)cc1` gave a melting point of 197 °C. `Oc1ccc(-c2ccc(-c3ccc(O)cc3)c(-c3ccc(OCCN4CCCC4)cc3)n2)cc1` gave a melting point of 145 to 150 °C. With `COC(=O)Cc1ccc(OCc2ccc3ccccc3n2)c(Br)c1` the melting point was 90 °C. With `CC1=NN(c2ccc(CO)cc2)C(=O)C1` the melting point was 139 to 140 °C. Compound `Cc1ccc2c(c1)C=Cc1cc(C)ccc1C2c1cn(-c2cc(N(C)CC(=O)Nc3nc(CC(=O)O)cs3)ncn2)c(=O)[nH]c1=S` has a melting point of 215 °C. `Cc1ccc(-c2ncc(C)c(C)n2)cc1` showed a melting point of 114 °C. `Cc1nc(-c2ccc(OCC(F)(F)C(F)F)cc2)sc1C(=O)O` gave a melting point of 167 to 168 °C. In the case of `C[C@H](c1ccccc1)N1C(=O)c2cccc([N+](=O)[O-])c2C1=O`, the melting point is reported as 115 to 117 °C. `COc1cccc2c1CC=CC2` showed a melting point of 44.3 to 45 °C. Work on `CC1O[C@@](Cn2cncn2)(c2ccc(Cl)cc2Cl)[C@@H](C)N1S(C)(=O)=O` (relative stereo) yielded a melting point of 160 to 170 °C. `O=C(Oc1cccc(F)c1)c1ccc(F)cc1` gave a melting point of 43.5 to 45.2 °C. `CN(C)CCNc1ccc(NCCN(CCO)CCO)c2c1C(=O)c1c(O)ccc(O)c1C2=O` showed a melting point of 204 to 205 °C. In the case of `CN(C)c1ccc2nc(-c3csc4ccccc34)[nH]c(=O)c2c1`, the melting point is reported as over 300 °C. `O=C(NC(CO)c1ccccc1)c1ccccc1` (stereo not drawn) showed a melting point of 235 to 236 °C. `Cc1ccc(-c2cn(C)c(-c3ccc(C)s3)n2)s1` gave a melting point of 138 to 140 °C. In the case of `CCCOc1ccccc1-c1nc2nc(N(CC)CC)ncc2c(=O)[nH]1`, the melting point is reported as 116 to 117 °C. With `COc1cc(C)c2c(c1OC)CCC1C(=O)NC(=O)C21` (stereo not drawn) the melting point was 179 to 181 °C. In the case of `CN1CCC[C@@H]1Cc1c[nH]c2ccc(C=CC(C)(C)O)cc12`, the melting point is reported as 155 to 158 °C. Work on `CCOC(=O)c1cc(NCc2c(C)cccc2C)c2nc(COC)n(C)c2c1` yielded a melting point of 134 to 135 °C. In the case of `CNC1N=CN(c2c(Cl)cccc2Cl)C(=O)N1` (stereo not drawn), the melting point is reported as 270 °C. Work on `Cc1ccc2c(cc(CCCC(=O)O)n2S(=O)(=O)c2ccc3ncsc3c2)n1` yielded a melting point of 67 to 70 °C. In the case of `C=CCN1CC(c2ccc([N+](=O)[O-])cc2F)CCS1(=O)=O` (stereo not drawn), the melting point is reported as 121 °C. `CCCn1nc(C2CC2)c(C(=O)OCC)c1Cc1ccc(-c2ccccc2S(=O)(=O)NC(C)(C)C)cc1` gave a melting point of 165 to 168 °C. In the case of `O=C(O)COc1ccc(OC(F)(F)F)cc1C(=S)NCc1cccc([N+](=O)[O-])c1`, the melting point is reported as 158 to 161 °C. Compound `O=C(CCc1ccccc1)Nc1ccc(CN2C(=O)[C@H]3CCC[C@H]3N(C(=O)CN3C(=O)c4ccccc4C3=O)c3ccccc32)cc1` (relative stereo) has a melting point of 222 °C. Work on `Cc1c(O[Si](C)(C)C(C)(C)C)cc(O[Si](C)(C)C(C)(C)C)c(C)c1C(=O)OCC(Cl)(Cl)Cl` yielded a melting point of 90 to 92 °C. With `CCNc1nc(C)c(C(=O)OCC)c(NCCCN(C)C)c1[N+](=O)[O-]` the melting point was under 20 °C. `Cc1[nH]c(C(=O)NCC(=O)O)c(C)c1-c1nc2ccc(C(=O)c3ccccc3)cc2[nH]1` showed a melting point of 274 to 276 °C. `Cn1c([N+](=O)[O-])cnc1C=Cc1nnc(-c2ccccc2)s1` gave a melting point of 257 °C. For `CCN(Cc1cc(Br)ccc1NCc1ccccc1)c1ccc(C(=O)O)nn1`, the melting point was 176 °C. With `O=[N+]([O-])c1ccccc1S(=O)(=O)NOCc1ccccc1` the melting point was 148 to 151 °C. In the case of `COc1ccccc1CN1C(=O)C2CCCC2N(C(=O)CN2C(=O)c3ccccc3C2=O)c2ccccc21` (stereo not drawn), the melting point is reported as 261 to 272 °C. Compound `CC(C)(C)OC(=O)C1(Cl)OC1c1ccc([N+](=O)[O-])cc1` (stereo not drawn) has a melting point of 60 °C. `CC(=O)OC1CSC(Oc2ccc(C)nc2C)C(OC(C)=O)C1OC(C)=O` (stereo not drawn) showed a melting point of 139 to 140 °C. Work on `COc1cccc2c3c(c(=O)[nH]c12)CCN3c1ccccc1` yielded a melting point of 75 to 77 °C. With `COc1ccc2c(c1)C1=C(SCC3(CCN(CC(O)COc4ccc(Cl)cc4)CC3)O1)C(=O)C2=O` (stereo not drawn) the melting point was 109 to 110 °C. `CCn1c(=O)c(C(N)=O)c(N)c2ccc(C)nc21` showed a melting point of 263 to 266 °C. Work on `O=C1c2ccccc2C(=O)c2sc(-c3ccccc3F)nc21` yielded a melting point of over 260 °C. Compound `CCOCN(c1ccccc1CN1CCC(c2ccccc2)OC1=O)S(=O)(=O)C(F)(F)F` (stereo not drawn) has a melting point of 116 °C. `CC(C)(C)Sc1c(CC(C)(C)C(=O)O)n(Cc2ccc(Cl)cc2)c2ccc(OCc3cscn3)cc12` gave a melting point of 194 to 195 °C. For `CCOC(=O)C1Cc2c(n(C)c3ccc(OCc4ccccc4)cc23)C1` (stereo not drawn), the melting point was 90 to 95 °C. `CCCCCCCCCCCCCCCCCCOc1ccc(OCc2ccccc2)c(C(=O)O)c1` gave a melting point of 80 to 81 °C. Work on `Clc1ccc(C2CNCCN2)cc1Cl` (stereo not drawn) yielded a melting point of 74 to 76 °C. `O=C(CNC(=O)OCc1ccccc1)ON1C(=O)CCC1=O` showed a melting point of 110 to 112 °C. `CC(=O)C1=C(O)C(=C(C)Nc2cccc(S(N)(=O)=O)c2)C(=O)OC1=O` showed a melting point of 237 °C. Compound `O=C(CO/N=C(\C(=O)O)c1ccco1)NOC(c1ccccc1)c1ccccc1` has a melting point of 138 to 140 °C. With `CCOC(=O)c1[nH]c2ccc(C)cc2c1Sc1ccc(Cl)cc1` the melting point was 158 to 160 °C. Work on `N#Cc1cc(F)c(N2C(=O)C3CCCCN3C2=O)nc1Cl` (stereo not drawn) yielded a melting point of 192 to 193 °C. `CN1CCN(C2=Nc3ccccc3Oc3sc(Br)cc32)CC1` showed a melting point of 150 to 151 °C. For `Brc1ccc2c(c1)C=NC=CN2`, the melting point was 135 to 138 °C. `C[C@H](Oc1ccc(-c2csc(S(N)(=O)=O)c2)cc1)[C@H](O)CCc1cccnc1` gave a melting point of 151 to 152 °C. Compound `CCCn1nc2c(N)nc3ccccc3c2c1CCCc1ccn(Cc2ccccc2)c1` has a melting point of 138 to 140 °C.
